According to patent US20170246235A1, “GREEN TEA COMPOSITIONS” (priority 2014, published 2017):
Like-named read-outs stand apart in the source and are kept apart here.

Legend:
[1] = tested on: α-amylase; conditions: cited from earlier work; for inhibition of α-amylase: at a concentration of 20 μM
[2] = after oral green tea extract; cited from earlier work
[3] = meta-analysis of 97 studies, Manach et al. (2005); cited from earlier work
[4] = tested on: P. falciparum; assay: Parasite growth measured by radiolabeled hypoxanthine uptake; format: cell-based, Plasmodium falciparum
Procedure: Growth was measured by hypoxanthine uptake using radiolabeled hypoxanthine. […] ([…]) indicates rep. […] Graphpad Prism 6 software was used to analyse the data using the equation for log(inhibitor) vs. normalized response (variable slope).
This example was carried out to determine the parasiticidal efficacy of Phytofare® green tea extract containing catechins. The extract was resuspended in water to give a stock concentration of 58 mg/ml. Parasite growth was measured by hypoxanthine uptake using radiolabeled hypoxanthine as described (Slavic, K. et al., Mol. Biochem. Parasitol. 168:113-116, 2009). […] Each experiment included five technical replicates, and a total of three biological replicates were carried out.
The assay was repeated to obtain the IC50 values for pure caffeine, and for Epigallocatechin Gallate (EGCG) which is present in the extract, obtained from a different source. The concentration ranges used were 352.44 μM to 0.69 μM for caffeine, and 371.01 μM to 0.73 μM for EGCG. These concentrations reflect the molar concentrations present at the highest concentration (μg/ml) of extract used.

[5] = cited from earlier work
[6] = target: T1, HIV-1 integrase (Human immunodeficiency virus type 1 group M subtype B, UniProt P04585); conditions: cited from earlier work
T1 construct: Full-length recombinant HIV-1 integrase protein (200 nM, purified from bacteria); literature Express Biotech International; host or cells: bacteria

[7] = tested on: MMP9; conditions: cited from earlier work
[8] = tested on: MMP2; conditions: cited from earlier work
[9] = tested on: breast cancer cells; conditions: cited from earlier work

Oc1cc(O)c2c(c1)O[C@H](c1cc(O)c(O)c(O)c1)[C@H](O)C2 [EGC, epi-gallocatechin]
inhibition of α-amylase [1]: 13%
area-under-curve, aqueous humor [2]: 2.035 ± 0.5317 µM·h
concentration in aqueous humor [2]: 602.9 ± 116.7 nM
elimination half-life [3]: 2.3 ± 0.2 h

Cn1c(=O)c2c(ncn2C)n(C)c1=O [caffeine]
inhibition by caffeine alone ([4]; even at 352.44 μM): no inhibition
IC50, rep. 1 ([4]; independent IC50 assay rep. 1): no calculable IC50 values
IC50, rep. 2 ([4]; independent IC50 assay rep. 2): no calculable IC50 values
IC50, rep. 3 ([4]; independent IC50 assay rep. 3): no calculable IC50 values

Oc1cc(O)c2c(c1)O[C@H](c1ccc(O)c(O)c1)[C@H](O)C2 [epicatechin]
elimination half-life [3]: 2.5 ± 0.4 h

Oc1cc(O)c2c(c1)O[C@H](c1cc(O)c(O)c(O)c1)[C@@H](O)C2 [gallocatechin]
area-under-curve, retina [2]: 207,000 pmol×h/g
highest concentration in the retina [2]: 22729.4 ± 4229.4 pmol/g

epigallocatechin-3-gallate [EGCG]
effect on Km of α-amylase ([1]; 50 μM EGCG, p=0.1): did not significantly affect
Vmax of α-amylase ([1]; 50 μM EGCG, reduced from 323.3): 206.1 product/min/mg protein
inhibition of α-amylase [1]: 34%
cellular toxicity to the corneal epithelium ([5]; 0.01% or 0.1% EGCG): No cellular toxicity
decrease in corneal fluorescein staining compared with the vehicle ([5]; topical 0.1% EGCG): 24.6%
decrease in corneal fluorescein staining compared with untreated controls ([5]; topical 0.1% EGCG): 41.9%
decrease in number of CD11b+ cells, central cornea, compared with the vehicle ([5]; topical 0.1% EGCG): 26.1%
decrease in number of CD11b+ cells, peripheral cornea, compared with the vehicle ([5]; topical 0.1% EGCG): 23.3%
IC50 for HIV-1 integrase [6]: slightly higher than Raltegravir
production of MMP9 ([7]; 20 ug/ml in the media): completely inhibited
activity of MMP9 ([7]; 50 μg/ml and 100 ug/ml): completely inhibited
IC50 ([4]; ± S.E.M., read-out: IC50, means of the three independent experiments): 80.8 µM
elimination half-life [3]: 3.5 ± 0.3 h
production of MMP2 ([8]; 20 ug/ml in the media): reduced
activity of MMP2 ([8]; 50 μg/ml and 100 ug/ml): completely inhibited
inhibition of invasion by breast cancer cells ([9]; 20 μg/ml in the media): about 26%
inhibition of invasion by breast cancer cells ([9]; 50 μg/ml in the media): ~100%
